Experimental data published in ChEMBL document CHEMBL4680330, “Soloxolone methyl, as a 18βH-glycyrrhetinic acid derivate, may result in endoplasmic reticulum stress to induce apoptosis in breast cancer cells” (Bioorg Med Chem, 2021).

Assays:
MDA-MB-231 [1] = experiment: Induction of endoplasmic reticulum stress in human MDA-MB-231 cells assessed as BIP expression at 4.39 uM incubated for 24 hrs by Western blot analysis (reference value: 1); type: functional
MDA-MB-231 [2] = experiment: Induction of apoptosis in human MDA-MB-231 cells assessed as cleaved pro-caspase 8 level at 4.39 uM incubated for 24 hrs by Western blot analysis (reference value: 1); type: functional
MDA-MB-231 [3] = experiment: Induction of apoptosis in human MDA-MB-231 cells assessed as cleaved PARP level at 4.39 uM incubated for 24 hrs by Western blot analysis (reference value: 1); type: functional
MDA-MB-231 [4] = experiment: Induction of endoplasmic reticulum stress in human MDA-MB-231 cells assessed as IRE1-alpha expression at 4.39 uM incubated for 24 hrs by Western blot analysis (reference value: 1); type: functional
MDA-MB-231 [5] = experiment: Induction of apoptosis in human MDA-MB-231 cells assessed as cleaved pro-caspase 3 level at 4.39 uM incubated for 24 hrs by Western blot analysis (reference value: 1); type: functional
MDA-MB-231 [6] = experiment: Induction of apoptosis in human MDA-MB-231 cells assessed as PARP level at 4.39 uM incubated for 24 hrs by Western blot analysis (reference value: 1); type: functional
MDA-MB-231 [7] = experiment: Induction of apoptosis in human MDA-MB-231 cells assessed as pro-caspase 3 level at 4.39 uM incubated for 24 hrs by Western blot analysis (reference value: 1); type: functional
MDA-MB-231 [8] = experiment: Induction of apoptosis in human MDA-MB-231 cells assessed as pro-caspase 8 level at 4.39 uM incubated for 24 hrs by Western blot analysis (reference value: 1); type: functional
MDA-MB-231 [9] = experiment: Induction of endoplasmic reticulum stress in human MDA-MB-231 cells assessed as CHOP expression at 4.39 uM incubated for 24 hrs by Western blot analysis (reference value: 1); type: functional
MCF7 = experiment: Cytotoxicity against human MCF7 cells assessed as reduction in cell viability incubated for 48 hrs by ATP based luminometry; type: functional; settings: MCF7, 48 h
[10] = system: Epidermoid carcinoma cell line; experiment: Cytotoxicity against human Epidermoid carcinoma cell line; type: functional, cell-based

Structure (SMILES) | fold change (FC) (MDA-MB-231 [1]) | fold change (FC) (MDA-MB-231 [2]) | fold change (FC) (MDA-MB-231 [3]) | fold change (FC) (MDA-MB-231 [4]) | fold change (FC) (MDA-MB-231 [5]) | fold change (FC) (MDA-MB-231 [6]) | fold change (FC) (MDA-MB-231 [7]) | fold change (FC) (MDA-MB-231 [8]) | fold change (FC) (MDA-MB-231 [9]) | IC50 (MCF7) [µM] | IC50 [10] [µM]
COc1cccc2c1C(=O)c1c(O)c3c(c(O)c1C2=O)C[C@@](O)(C(=O)CO)C[C@@H]3O[C@H]1C[C@H](N)[C@H](O)[C@H](C)O1 [DOXORUBICIN] | 0.1 | 0.6 | 23.2 | 0.1 | 2 | 0.2 | 2.5 | 0.3 | 0.3 |  | 
CC1(C)[C@@H](O)CC[C@]2(C)[C@H]3C(=O)C=C4[C@@H]5C[C@@](C)(C(=O)O)CC[C@]5(C)CC[C@@]4(C)[C@]3(C)CC[C@@H]12 [ENOXOLONE] |  |  |  |  |  |  |  |  |  | 32.6 | ≥ 0.3
